The test system of test [1] is housefly adults. Type of test: in vivo.
The conditions of test [2]: in words, background; cited from earlier work.
Test [3] deals with house fly adults. Nature of the test: Oil spray test, Campbell's turn table method (Test Examples 1 and 2). Conditions: Musca domestica, topical, 24 h, read-out: killing ratio.
[4] abbreviates: insecticide alone, no synergist.
[5] abbreviates: insecticide alone, no synergist (reference 1.0).
Setting [6] is: 3,4-dimethylphenyl-N-methylcarbamate + synergist, relative to insecticide alone.
Setting [7] is: 3,4-dimethylphenyl-N-methylcarbamate + synergist, three batches.
Where [8] appears, read: allethrin + 5 times weight of synergist, relative to allethrin alone.
The mark [9] stands for this setting: allethrin + 5 times weight of synergist, three batches.
[10] abbreviates: natural pyrethrin + 5 times weight of synergist, relative to natural pyrethrin alone.
[11] abbreviates: natural pyrethrin + 5 times weight of synergist, three batches.
The mark [12] stands for this setting: present compound alone, no insecticide.
Setting [13] is: tetramethrin + 5 times weight of synergist, relative to tetramethrin alone of same batch.
The mark [14] stands for this setting: tetramethrin + 5 times weight of synergist, three batches (tetramethrin alone 0.530, 0.520, 0.570).

Each structure is given as a SMILES string. Several values for one entry are separate records, joined by “and”; a condition that tells them apart may be missing. Equal values may be shown once. Read-outs that look alike come from different tables or passages of the source. A value given as a limit tells only on which side of the number the result lay.

On to `CNC(=O)Oc1ccc(C)c(C)c1` [3,4-Dimethylphenyl-N-methylcarbamate, 3,4-dimethylphenyl-N-methylcarbamate, reference compound], for which the LD50 in test [1] (setting [4]) was ≥ 5 γ/Fly. Further, in test [1] (setting [5]), the “Ratio of enhancing the killing effect” value is 1.0.

Turning to `C=CCC1=C(C)C(OC(=O)C2C(C=C(C)C)C2(C)C)CC1=O` (stereo not shown) [Allethrin, reference compound], in test [1] (setting [4]), the LD50 is 0.560 γ/Fly and 0.60 γ/Fly and 0.610 γ/Fly. Moreover, in test [1] (setting [5]), the “Ratio of enhancing the killing effect” value is 1.0.

Turning to `CNC(=O)Oc1cccc2ccccc12` [Carbaryl, reference compound], the “Ratio of enhancing the killing effect” value in test [1] (setting [5]) is 1.0.

Regarding `CC(C)=CC1C(C(=O)OCc2coc(Cc3ccccc3)c2)C1(C)C` (stereo not shown) [Chrysron, 5-benzyl-3-furylmethyl chrysanthemate, reference compound], in test [1] (in vivo), the LD50 was 0.026 γ/Fly and 0.024 γ/Fly and 0.027 γ/Fly. Also, in test [1] (setting [5]), the “Ratio of enhancing the killing effect” value is 1.0.

Turning to `CCCCC(CC)CN1C(=O)C2C3C=CC(C3)C2C1=O` (stereo not shown) [MGK-264, N-(2-ethylhexyl)bicyclo[2,2,1]-hept-5-ene-anhydro-phthalic acid-2,3-dicarboxyimide], the “synergistic effect on allethrin compared with natural pyrethrin” value in test [2] is given as “more excellent synergistic effect on allethrin than that on natural pyrethrin”.

In the case of `CCCCOCCOCCOCc1cc2c(cc1CCC)OCO2` [Piperonyl butoxide, α-[2-(butoxyethoxy)-ethoxy]-4,5-methylene-dioxy-2-propyltoluene], in test [2], the “synergistic effect on allethrin and other synthetic pyrethroids” value was “somewhat inferior”; the “synergistic effect on natural pyrethrin” value is recorded as “prominent synergistic effect”.

As to `C#CCOC(=O)C(CCC)(OC)c1ccccc1` (stereo not drawn) [Present compound (1), Propargyl α-(n-propyl)-α-methoxyphenylacetate], the “Ratio of enhancing the killing effect” value in test [1] (setting [6]) is recorded as at least 18; in test [1] (setting [8]) it was 6.6; in test [1] (setting [10]) it was 4.9; in test [1] (setting [13]), 7.8. Besides, the LD50 in test [1] (setting [7]) is reported as 0.278 γ/Fly; in test [1] (setting [9]), 0.085 γ/Fly; in test [1] (setting [11]), 0.082 γ/Fly; in test [1] (setting [12]), ≥ 2 γ/Fly; in test [1] (setting [14]), 0.068 γ/Fly.

Regarding `C#CCOC(=O)C(OC)(c1ccccc1)C(C)C` (stereo not drawn) [Present compound (2), Propargyl α-(iso-propyl)-α-methoxyphenylacetate], the figures for the LD50 in test [1] (setting [12]) and in test [1] (setting [14]) were ≥ 2 γ/Fly and 0.061 γ/Fly, respectively. Further, the “Ratio of enhancing the killing effect” value in test [1] (setting [13]) stood at 8.7.

Consider `C#CCOC(=O)C(CC=C)(OC)c1ccccc1` (stereo not drawn) [Present compound (3), Propargyl α-allyl-α-methoxyphenylacetate], for which the “Ratio of enhancing the killing effect” value in test [1] (setting [6]) was at least 18; in test [1] (setting [8]) it was 7.4; in test [1] (setting [10]) it was 5.1; in test [1] (setting [13]), 8.3. Besides, the LD50 in test [1] (setting [7]) is listed as 0.273 γ/Fly; in test [1] (setting [9]), 0.076 γ/Fly; in test [1] (setting [11]) it was 0.079 γ/Fly; in test [1] (setting [14]), 0.064 γ/Fly.

On to `C#CCOC(=O)C(CCC=C)(OC)c1ccccc1` (stereo not drawn) [Present compound (4), Propargyl α-butenyl-α-methoxyphenylacetate], for which the “Ratio of enhancing the killing effect” value in test [1] (setting [13]) turned out to be 7.5. Moreover, the LD50 in test [1] (setting [14]) is 0.071 γ/Fly.

Take `C#CCOC(=O)C(CC=C)(OCC)c1ccccc1` (stereo not drawn) [Present compound (5), Propargyl α-allyl-α-ethoxyphenylacetate]: the “Ratio of enhancing the killing effect” value in test [1] (setting [6]) is at least 21; in test [1] (setting [8]) it was 9.8; in test [1] (setting [10]), 5.6; in test [1] (setting [13]), 12.5. Besides, the LD50 in test [1] (setting [7]) is listed as 0.238 γ/Fly; in test [1] (setting [9]) it was 0.057 γ/Fly; in test [1] (setting [11]), 0.071 γ/Fly; in test [1] (setting [14]), 0.042 γ/Fly.

On to `C#CCOC(=O)C(CC(C)C)(OC)c1ccccc1` (stereo not drawn) [Present compound (6), Propargyl α-(iso-butyl)-α-methoxyphenylacetate], for which the “Ratio of enhancing the killing effect” value in test [1] (setting [13]) stood at 8.0. In addition, in test [1] (setting [14]), the LD50 is on record as 0.066 γ/Fly.

`C#CCOC(=O)C(CC=C)(OCCC)c1ccccc1` (stereo not drawn) [Present compound (7), Propargyl α-allyl-α-(n-propyloxy)-phenylacetate]: the “Ratio of enhancing the killing effect” value in test [1] (setting [13]) was 7.9. Moreover, the LD50 in test [1] (setting [14]) is reported as 0.067 γ/Fly.

Regarding `C#CCOC(=O)C(CCCCCC)(OC)c1ccccc1` (stereo not drawn) [Present compound (8), Propargyl α-(n-hexyl)-α-methoxyphenylacetate], in test [1] (setting [13]), the “Ratio of enhancing the killing effect” value turned out to be 4.5. The LD50 in test [1] (setting [14]) is on record as 0.128 γ/Fly.

Turning to `C#CCOC(=O)C(OC)(c1ccccc1)C1CCCCC1` (stereo not drawn) [Present compound (9), Propargyl α-cyclohexyl-α-methoxyphenylacetate], in test [1] (setting [13]), the “Ratio of enhancing the killing effect” value came out at 4.8. For the same compound, the LD50 in test [1] (setting [14]) is 0.111 γ/Fly.

With `C#CCCOC(=O)C(CC=C)(OC)c1ccccc1` (stereo not shown) [Present compound (10)], the LD50 in test [1] (setting [12]) is recorded as ≥ 2 γ/Fly; in test [1] (setting [14]), 0.077 γ/Fly. Moreover, in test [1] (setting [13]), the “Ratio of enhancing the killing effect” value came out at 6.9.

For the compound `C#CCOC(=O)C(Cc1ccccc1)(OC)c1ccccc1` (stereo not drawn) [Present compound (11), Propargyl α-benzyl-α-methoxyphenylacetate], the “Ratio of enhancing the killing effect” value in test [1] (setting [6]) was at least 24; in test [1] (setting [8]), 10.0; in test [1] (setting [10]), 6.5; in test [1] (setting [13]), 11.3. The LD50 was 0.21 γ/Fly in test [1] (setting [7]), 0.060 γ/Fly in test [1] (setting [9]), 0.054 γ/Fly in test [1] (setting [11]) and 0.046 γ/Fly in test [1] (setting [14]).

Take `C#CCOC(=O)C(Cc1ccccc1)(OCC)c1ccccc1` (stereo not drawn) [Present compound (12), Propargyl α-benzyl-α-ethoxyphenylacetate]: the “Ratio of enhancing the killing effect” value in test [1] (setting [13]) was determined as 10.0. In addition, in test [1] (setting [14]), the LD50 was 0.052 γ/Fly.

With `C=CCOC(=O)C(Cc1ccccc1)(OC)c1ccccc1` (stereo not drawn) [Present compound (13), Allyl α-benzyl-α-methoxyphenylacetate], the “Ratio of enhancing the killing effect” value in test [1] (setting [13]) is 10.4. The LD50 in test [1] (setting [14]) is on record as 0.050 γ/Fly.

As for `C#CCOC(=O)C(OC)(c1ccccc1)c1cccs1` (stereo not drawn) [Present compound (14), Propargyl α-(2-thienyl)-α-methoxyphenylacetate], the “Ratio of enhancing the killing effect” value in test [1] (setting [13]) amounted to 8.1. Also, the LD50 in test [1] (setting [14]) was 0.064 γ/Fly.

On to `C#CCC(OC)(C(=O)OCC=C)c1ccccc1` (stereo not drawn) [Present compound (15), Allyl α-propargyl-α-methoxyphenylacetate], for which the “Ratio of enhancing the killing effect” value in test [1] (setting [13]) is listed as 8.7. The LD50 in test [1] (setting [14]) was 0.060 γ/Fly.

`C#CCCOC(=O)C(OC)(c1ccccc1)c1ccccc1` [Present compound (16)]: the “Ratio of enhancing the killing effect” value in test [1] (setting [6]) is listed as at least 20; in test [1] (setting [8]), 7.2; in test [1] (setting [10]) it was 5.5; in test [1] (setting [13]), 9.5. Besides, the LD50 in test [1] (setting [7]) is given as 0.25 γ/Fly; in test [1] (setting [9]), 0.083 γ/Fly; in test [1] (setting [11]), 0.064 γ/Fly; in test [1] (setting [14]), 0.055 γ/Fly.

Regarding `C#CCCCCOC(=O)C(CCC)(OCC)c1ccccc1` (stereo not shown) [Present compound (17)], in test [1] (setting [13]), the “Ratio of enhancing the killing effect” value worked out at 8.3. The LD50 in test [1] (setting [14]) is given as 0.063 γ/Fly.

In the case of `C#CCCOC(=O)C(OCCC#C)(c1ccccc1)c1ccccc1` [Present compound (18)], the “Ratio of enhancing the killing effect” value in test [1] (setting [13]) was 11.1. The LD50 in test [1] (setting [14]) is listed as 0.047 γ/Fly.

For the compound `C#CCOCC(CCC)(OC)c1ccccc1` (stereo not drawn) [Present compound (19), Propargyl α-(n-propyl)-α-methoxyphenethyl ether], in test [1] (setting [13]), the “Ratio of enhancing the killing effect” value amounted to 8.5. Further, the LD50 in test [1] (setting [14]) is 0.067 γ/Fly.

Regarding `C#CCOCC(CC=C)(OC)c1ccccc1` (stereo not shown) [Present compound (20)], the “Ratio of enhancing the killing effect” value is listed as at least 19 in test [1] (setting [6]), 9.8 in test [1] (setting [8]), 7.0 in test [1] (setting [10]) and 10.8 in test [1] (setting [13]). Besides, the LD50 in test [1] (setting [7]) was 0.252 γ/Fly; in test [1] (setting [9]), 0.062 γ/Fly; in test [1] (setting [11]), 0.056 γ/Fly; in test [1] (setting [14]), 0.053 γ/Fly.

Regarding `C#CCOCC(CC=C)(OCC)c1ccccc1` (stereo not drawn) [Present compound (21), Propargyl α-allyl-α-ethoxyphenethyl ether], in test [1] (setting [13]), the “Ratio of enhancing the killing effect” value was 9.5. For the same compound, in test [1] (setting [14]), the LD50 is given as 0.060 γ/Fly.

As for `C#CCOCC(CC(C)C)(OCC=C)c1ccccc1` (stereo not drawn) [Present compound (22), Propargyl α-(iso-butyl)-α-allyloxyphenethyl ether], in test [1] (setting [13]), the “Ratio of enhancing the killing effect” value is recorded as 10.2. Further, the LD50 in test [1] (setting [14]) is 0.056 γ/Fly.

Take `C#CCCOCC(CCC)(OC)c1ccccc1` (stereo not shown) [Present compound (26)]: the “Ratio of enhancing the killing effect” value in test [1] (setting [13]) stood at 7.0. Moreover, the LD50 in test [1] (setting [14]) is on record as 0.081 γ/Fly.

On to `C#CCCCCOCC(CCC)(OC)c1ccccc1` (stereo not shown) [Present compound (27)], for which the “Ratio of enhancing the killing effect” value in test [1] (setting [13]) was 7.0. In test [1] (setting [14]), the LD50 is recorded as 0.081 γ/Fly.

Consider `CC(C)=CC1C(C(=O)OCN2C(=O)C3=C(CCCC3)C2=O)C1(C)C` (stereo not shown) [Tetramethrin, N-chrysanthemoxymethyl-3,4,5,6-tetrahydrophthalimide, reference compound], for which, in test [3], the mortality at 0.05 % was 52%. In test [1] (setting [4]), the LD50 was 0.530 γ/Fly and 0.520 γ/Fly and 0.570 γ/Fly. The “Ratio of enhancing the killing effect” value in test [1] (setting [5]) is reported as 1.0.

The values are drawn from US3970703A, “Phenylacetic acid derivatives” (Sumitomo Chemical Company, Limited, priority 1970, dated 1976).
